Here are results for 88 molecules from a melting point compilation (Tetko et al.; mined from patent text by program, amines drawn as free bases though some values may be those of a salt).

On to `CCOC(=O)c1ccc(C(=O)c2ccc(OC)cc2)cc1`, for which the melting point lay in the range of 74 to 81 °C. Consider `O=c1c(-c2cccc(C(F)(F)F)c2)coc2cc(O)c(O)cc12`, for which the melting point was 274 to 275 °C.

Regarding `NC(=O)c1sccc1S`, the melting point lay in the range of 116 to 120 °C. The figure for `CON(C)C(=O)/C=C/C(=C(c1ccc(F)cc1)c1ccc(F)cc1)C(C)C` is 109 to 110 °C; for `Cc1c(F)c(N2CCC(C)(CN)C2)cc2c1c(=O)c(C(=O)O)cn2C1CC1` (stereo not drawn) it is 250 to 252 °C; for `CC1(C)OC[C@H](CCOc2ccc(-c3nc4c5ccccc5c5ccccc5c4[nH]3)cc2)O1` it is 196 to 198 °C. In the case of `CCCCCCOc1cc(C(=O)O)cc([N+](=O)[O-])c1C(=O)c1ccccc1`, the melting point lay within 165 to 166 °C.

On to `COC(=O)C=Cc1ccc(Cl)c(Cl)c1`, for which the melting point lay in the range of 114 to 115 °C. `CCCc1c(C(=O)NCc2ccc3cc(O)ccc3c2)cnn1-c1ccccc1` displayed a melting point of 189 to 190 °C.

`CC12CCC(=O)C=C1CCCC2n1cc(-c2ccccc2)nn1` (stereo not drawn): the melting point was in the range of 158 to 159 °C.

Consider `CCNC(C)c1cc(S(N)(=O)=O)sc1S(=O)(=O)CC` (stereo not drawn), for which the melting point was 135 to 138 °C. `Cc1ccn(-c2ccc(C(=O)N3Cc4cccnc4Nc4ccccc43)c(Cl)c2)n1`: the melting point lay within 192 to 193 °C. Take `CCCCNc1c(C(C)=O)cnc2onc(C)c12`: the melting point is 116 to 117 °C.

In turn, `CNC(=O)c1ccccc1Nc1nc(Nc2ccc3c(c2)CCN(CCF)CC3)ncc1Cl` had a melting point of 170 to 174 °C.

In turn, `COc1ccc2cc(CCC3(C)OCCO3)cc(F)c2c1` displayed a melting point of 51 to 53 °C. The molecule `CCC1NC(=O)N(C)C(=O)N1` had a melting point of 202 to 203 °C.

`N#CC1=C(C2CCCN2)Nc2n[nH]cc2C1c1cccc2nonc12` (stereo not drawn): the melting point was more than 240 °C. Turning to `CCCc1c(C(=O)NCc2ccc3cc(OCC(=O)OC)ccc3c2)cnn1-c1ccc(Cl)cc1`, the melting point lay within 139 to 140 °C.

For `O=C1Nc2ccc(C3CC4CCC3C4)cc2C12OCCO2` (stereo not drawn), the melting point lay in the range of 159 to 161 °C. For the molecule `CC(O)(c1nc(-c2ccc(F)cc2)c(-c2ccc(F)cc2)[nH]1)C(F)(F)F` (stereo not drawn), the melting point was in the range of 191 to 192 °C. Regarding `CC(C)c1nc(CC(=O)N[C@H](C(=O)N[C@@H](Cc2ccccc2)C[C@H](O)[C@H](Cc2ccccc2)NC(=O)OCc2cncs2)C(C)C)cs1`, the melting point was in the range of 153 to 155 °C. On to `Cc1c(C(=O)O)nc2ccc3c(c2c1-c1ccc2c(c1)OCO2)OCO3`, for which the melting point was 219 to 222 °C. Regarding `O=C(CSc1nc2ccccc2s1)NC1(C(=O)O)Cc2ccc(-c3ccc(Cl)cc3)cc2C1` (stereo not drawn), the melting point lay in the range of 205 to 207 °C. In turn, `O=c1c2ccccc2c(Cc2ccc(F)cc2)nn1N1CCNCC1` displayed a melting point of 157 to 159 °C.

`Cc1nc2c(s1)C(=O)C(=CN1CCOCC1)CC2` returned a melting point of 186 to 187 °C.

`CCCCc1nc2cccc(C)c2c(=O)n1C1CCC(=O)NC1=O` (stereo not drawn) yielded a melting point of 190 to 192 °C. As to `NC(=NO)c1ccc(-c2ccc(Cl)cc2)o1`, the melting point is 167 to 169 °C.

Molecule `CC(C)(C)OC(=O)C1(N)C=CC(C(=O)O)C1` (stereo not drawn) gave a melting point of 126 to 127 °C. Turning to `CN(C)CCCNC(=O)c1ccccc1-c1nnc(CSCCOc2ccccc2)o1`, the melting point lay in the range of 60 to 65 °C. Regarding `COc1ccc(-c2cnc3cc4cn(CCOC(C)=O)nc4cc3n2)cc1F`, the melting point was in the range of 175 to 178 °C.

On to `Cc1cc(-n2ncnn2)cc2ccc(=O)[nH]c12`, for which the melting point lay in the range of 264 to 266 °C. On to `CC(=O)Nc1ccccc1C(=O)NCCN1CCC(Nc2nc3ccccc3n2Cc2ccc(F)cc2)CC1`, for which the melting point came to 171 °C. Turning to `Cc1c(S(C)(=O)=O)ccc(C(=O)C2SCCCC2=O)c1Cl` (stereo not drawn), the melting point is 142 to 144 °C. For the molecule `COc1cc2c3c(c1)c(=O)c(Cc1cccnc1)cn3-c1cc(Br)ccc1S2`, the melting point fell in the range of 169 to 173 °C. As to `Cc1cc(=O)c(Oc2ccc(F)cc2C)c(-c2ccc(S(C)(=O)=O)cc2)o1`, the melting point was 146 °C. On to `S=c1cc(N2CCCC2)ss1`, for which the melting point worked out at 230 °C. Turning to `COc1cc(-c2[nH]c3ccc(OCc4ccccc4)cc3c2C)ccc1OCc1ccccc1`, the melting point lay within 155 to 158 °C. Molecule `O=C(CCCc1ccccc1)NCC(=O)N1c2ccccc2N(Cc2ccccc2)C(=O)[C@H]2CCC[C@H]21` (relative stereo) came in with a melting point of 219 to 221 °C.

For `CCc1cccc(CC(=O)O)c1OCCCc1cn(-c2ccc(Br)cn2)nc1C(C)C`, the melting point was found to be 152 °C. In turn, `CC(=O)Nc1ccc(N2CCC(O)CC2)cc1` registered a melting point of 191 °C. With `COc1ccc(C(NCCc2ccccc2)c2cccc(Nc3c(N)c(=O)c3=O)c2)cc1` (stereo not drawn) the figure was 174 to 176 °C. For the molecule `Cc1nc(N2CCCC(NCc3ccc(C(F)(F)F)cc3)C2=O)sc1C(=O)NCc1ccccc1` (stereo not drawn), the melting point is 39 to 40 °C.

In turn, `CCCCCC(=O)Nc1nnc(C)s1` came in with a melting point of 203 °C. In the case of `Cc1cc(OC(F)(F)C(F)F)ccc1N1C(=O)c2cccc(Cl)c2C1=O`, the melting point lay within 121 to 122 °C. For `COc1ccc(C(=O)Nc2ccccc2C(=O)NCCCC(=O)O)c(O)c1`, the melting point was in the range of 201 to 203 °C.

`CCOC(=O)C1=C(C)NC(=S)N(C(=O)OCC)C1c1cccc2nonc12` (stereo not drawn) displayed a melting point of 144 to 146 °C. In turn, `COCC(=O)Nc1cc(C#N)cc(NC(=O)COC)c1Cl` had a melting point of 173 to 174 °C. On to `Cc1nnc2c(-c3ccccc3)nccn12`, for which the melting point lay within 178 to 180 °C.

With `O=C(O)CCCCCOc1cc(-c2ccccc2)cc(-c2ccccc2)c1`, the melting point worked out at 104 °C. For the molecule `CC1(CNC(=O)OCc2ccccc2)Cn2cc([N+](=O)[O-])nc2O1` (stereo not drawn), the melting point was in the range of 171 to 172 °C.

As for `COC(=O)c1ncc(C(=O)O)cc1Cl`, the melting point lay in the range of 182 to 184 °C.

`CC1Cc2cc(O)ccc2C2C(F)CC3(C)C(=O)CCC3C12` (stereo not drawn) returned a melting point of 185 to 186 °C. Molecule `CC(C)n1nc(-c2sc(NC(=O)c3ccc(CNCCN4CCOCC4)cc3)nc2-c2ccccc2)ccc1=O` came in with a melting point of 86 to 88 °C.

`COC(=O)c1ccc(OCC2CC(=O)N(c3ccc(C)cc3)C2)cc1` (stereo not drawn) returned a melting point of 110 to 112 °C. `O=C(O)c1ccc(C(=O)O)c(-c2nc3ccccc3o2)c1` registered a melting point of 284 °C. `NS(=O)(=O)c1ccc(-c2c(-c3ccccc3)noc2C(=O)O)cc1` came in with a melting point of 300 °C.

`COc1ccc(CN2Cc3cc(OC)c(O)cc3C(OC)C2)cc1` (stereo not drawn) showed a melting point of 84 to 85 °C. In the case of `CCCc1nn(C)c2c(=O)[nH]c(-c3cc(CCC(=O)O)ccc3OCC)nc12`, the melting point was in the range of 165 to 167 °C.

The molecule `CC1C=C(Nc2ccc(OC(F)(F)F)cc2)N(C)N1` (stereo not drawn) came in with a melting point of 80 to 82 °C. As to `Cn1c(CC(=O)O)ccc1C(=O)c1ccc([N+](=O)[O-])cc1`, the melting point was in the range of 192 to 195 °C. `Cc1cc(Br)cnc1CCCCNc1ncc(Cc2ccn(C)c(=O)c2)c(=O)[nH]1` displayed a melting point of 203 to 204 °C. On to `CCC(COC)NC(=O)C(Cc1ccc(OCc2ccccc2)cc1)NC(=O)C(CC(C)C)N(C)Cc1ccc(C(C)(C)C)cc1` (stereo not drawn), for which the melting point lay within 118 to 120 °C. `O=C(Nc1cc[nH]c(=O)n1)OCc1ccccc1` returned a melting point of more than 250 °C. The figure for `CCCCCCCCCCCCCCCCCCOC(=O)c1cc(C(=O)OCCCCCCCCCCCCCCCCCC)c(C(=O)O)cc1C(=O)O` is 133 to 137 °C; for `CC1(C(=O)O)Oc2ccc(Cl)cc2C(C)(c2ccccc2)O1` (stereo not drawn) it is 181 °C; for `CC(C)NCC(O)COc1ccc2nc3[nH]c(=O)[nH]c3cc2c1` (stereo not drawn) it is 262 to 264 °C. `Cc1ccc(OCc2nc3nccnc3c(=O)[nH]2)cc1` gave a melting point of 232 to 233 °C.

In turn, `COC(=O)C(C)(C)c1cn2nc(Cl)c(C)cc2n1` registered a melting point of 98 to 99 °C. `CCc1nc(NC(=O)C2=C(O)c3ccc4ccccc4c3S(=O)(=O)N2)sc1C` had a melting point of 268 to 270 °C. Regarding `C[C@@H]1CCN(C(=O)C(C)(C)C)[C@@H](C(=O)O)C1`, the melting point lay within 87 to 90 °C.

The molecule `CCOC1c2ccccc2-c2nccnc21` (stereo not drawn) showed a melting point of more than 300 °C. For the molecule `O=[N+]([O-])c1nccn1C1CCCCO1` (stereo not drawn), the melting point came out at 50 °C.

Turning to `OCc1ncc2n1CCC2`, the melting point fell in the range of 110 to 120 °C. As for `COc1ccc(Nc2ccc3c(c2)OCC(=O)N3)cc1`, the melting point was in the range of 174 to 175 °C. In turn, `COc1ccc(N=C(C#CSc2ccccc2)N2CCN(C)CC2)cc1` showed a melting point of 160 °C.

`CC(=NOCCOc1ccc(C[C@H](Oc2ccc(C(C)(C)C)cc2)C(=O)O)cc1)c1ccc(-c2ccccc2)cc1`: the melting point was 141 to 143 °C.

Molecule `CC(C)(C)OC(=O)N1CCn2c(c(C(N)=O)c(C#N)c2-c2ccccc2)C1` registered a melting point of 214 to 215 °C. `c1ccc(COc2ccc3c(ccn3Cc3ccncc3)c2)cc1` registered a melting point of 124 to 125 °C. With `COc1cccc(C2C(=O)c3ccccc3C2=O)c1` the figure was 142 to 144 °C; with `O=C(NO)[C@H](CNS(=O)(=O)c1ccc(OCCc2ccccc2)cc1)N1CCOCC1`, 77 °C; with `CCOC(=O)c1nc(NC)sc1C(=O)CBr`, 130 to 132 °C.

`COc1ccc(CN2C(=O)C(C)(c3cc(C(=O)N4CCCCC4C(=O)N(C)CC(F)(F)F)ccc3Cl)c3cc(Cl)ccc32)c(OC)c1` (stereo not drawn) registered a melting point of 99 °C. `CC(C)c1cccc(C(C)C)c1NC(=O)C(C)(C)CCCOc1ccc2c(c1)C=C(c1nccn1C)C(CCc1ccccc1)O2` (racemic) gave a melting point of 108 to 110 °C. Regarding `CCOP(=O)(CC(=O)Nc1cc2c(Nc3ccc(OCc4cccc(Cl)c4)c(Cl)c3)ncnc2cn1)OCC`, the melting point was in the range of 106 to 109 °C. Turning to `CCOC(=O)c1cc(OC(C)=O)c2c(c1)c1ccccc1n2C`, the melting point was 123 to 125 °C. For the molecule `NS(=O)(=O)c1cc(C(=O)O)cc([N+](=O)[O-])c1Oc1cccc(Cl)c1`, the melting point fell in the range of 230 to 232 °C. `Cc1nc(-c2noc(Cc3ccccc3)n2)sc1C(=O)NCc1ccccc1`: the melting point lay in the range of 124 to 125 °C.

`Cc1nc2c(cc1CO)CCCCC2`: the melting point lay in the range of 79 to 80 °C.

As a reminder, the melting point is the temperature of the solid-liquid transition.
